Assay results taken from ChEMBL document CHEMBL6109089, “Design, synthesis and optimization of Apcin analogues as Cdc20 inhibitors for triple-negative breast cancer therapy” (Eur J Med Chem, 2025).
One block for each molecule: values may come before it.

How the values were obtained:
MDA-MB-231 [1] = test: cells; details: Homo sapiens, MDA-MB-231, 48 h
Description: Antiproliferative activity against human MDA-MB-231 cells assessed as inhibition of cell growth measured after 48 hrs by CCK-8 method

HeLa = test: cells; details: Homo sapiens, 48 h
Description: Antiproliferative activity against human HeLa cells assessed as inhibition of cell growth measured after 48 hrs by CCK-8 method

SiHa = test: cells; details: Homo sapiens, 48 h
Description: Antiproliferative activity against human SiHa cells assessed as inhibition of cell growth measured after 48 hrs by CCK-8 method

[2] = Antiproliferative activity against human MCF-10A cells assessed as inhibition of cell growth measured after 48 hrs by CCK-8 method; format: toxicity, cell-based
[3] = Antiproliferative activity against human HK-2 cells assessed as inhibition of cell growth measured after 48 hrs by CCK-8 method; format: toxicity, cell-based
[4] = Antiproliferative activity against rat H9c2 cells assessed as inhibition of cell growth measured after 48 hrs by CCK-8 method; format: toxicity, cell-based
MDA-MB-436 = test: cells; details: Homo sapiens, MDA-MB-436, 48 h
Description: Antiproliferative activity against human MDA-MB-436 cells assessed as inhibition of cell growth measured after 48 hrs by CCK-8 method

MCF7 = test: cells; details: Homo sapiens, MCF7, 48 h
Description: Antiproliferative activity against human MCF7 cells assessed as inhibition of cell growth measured after 48 hrs by CCK-8 method

[5] = molecular target: Cell division cycle protein 20 homolog (Homo sapiens, UniProt Q12834); test: Binding affinity to Cdc20 (unknown origin) assessed as dissociation constant measured after 360 secs by surface plasmon resonance assay
[6] = Selectivity index, ratio of IC50 for antiproliferative activity against human MCF7 cells to IC50 for antiproliferative activity against human MDA-MB-231 cells; format: cell-based
[7] = Selectivity index, ratio of IC50 for antiproliferative activity against human MCF-10A cells to IC50 for antiproliferative activity against human MDA-MB-231 cells; format: toxicity, cell-based; details: MCF-10A cells and MDA-MB-231 cells, read-out: Ratio IC50
MDA-MB-231 [8] = test: Induction of cell cycle arrest in human MDA-MB-231 cells assessed as increase in accumulation of cells at G2/M phase at 300 uM measured after 24 hrs by PI staining based flow cytometry analysis (reference value: 26.38%); format: functional
MDA-MB-231 [9] = test: Induction of apoptosis in human MDA-MB-231 cells assessed as viable cells at 300 uM incubated for 24 hrs by Annexin V-FITC/PI staining based flow cytometry analysis (reference value: 94.1%); format: functional; details: read-out: Activity
MDA-MB-231 [10] = test: Induction of apoptosis in human MDA-MB-231 cells assessed as early apoptotic cells at 300 uM incubated for 24 hrs by Annexin V-FITC/PI staining based flow cytometry analysis (reference value: 5.40%); format: functional
MDA-MB-231 [11] = test: Induction of apoptosis in human MDA-MB-231 cells assessed as late apoptotic cells at 300 uM incubated for 24 hrs by Annexin V-FITC/PI staining based flow cytometry analysis (reference value: 0.46%); format: functional
MDA-MB-231 [12] = test: Induction of apoptosis in human MDA-MB-231 cells assessed as necrotic cells at 300 uM incubated for 24 hrs by Annexin V-FITC/PI staining based flow cytometry analysis (reference value: 0.033%); format: functional
MDA-MB-231 [13] = test: Antitumor activity against human MDA-MB-231 cells xenografted in BALB/c nude mouse model assessed as reduction in tumor growth at 30 mg/kg, ip administered daily for 18 days by vernier caliper method relative to control; format: functional; set-up: scale not given: the % may be the effect or the level left; details: time 18 day

Sequence of Cell division cycle protein 20 homolog (Q12834 whole entry): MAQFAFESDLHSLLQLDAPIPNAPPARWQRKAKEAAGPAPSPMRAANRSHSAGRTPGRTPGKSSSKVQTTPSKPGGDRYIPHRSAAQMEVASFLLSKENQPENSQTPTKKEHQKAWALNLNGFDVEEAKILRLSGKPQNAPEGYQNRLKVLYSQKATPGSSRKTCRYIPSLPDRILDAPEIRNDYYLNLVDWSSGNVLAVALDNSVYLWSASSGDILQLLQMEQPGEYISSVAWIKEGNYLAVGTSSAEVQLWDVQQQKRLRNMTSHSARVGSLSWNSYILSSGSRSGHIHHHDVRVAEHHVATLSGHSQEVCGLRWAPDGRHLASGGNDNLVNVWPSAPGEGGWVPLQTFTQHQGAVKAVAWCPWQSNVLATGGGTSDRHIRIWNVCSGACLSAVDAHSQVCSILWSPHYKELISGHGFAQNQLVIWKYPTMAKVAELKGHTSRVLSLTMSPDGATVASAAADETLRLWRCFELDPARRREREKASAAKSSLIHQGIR

Structure (SMILES): Cc1ncc([N+](=O)[O-])n1CCOC(=O)NC(Nc1nc(Cl)cc(Nc2ccc(OC(F)(F)F)cc2)n1)C(Cl)(Cl)Cl (centres undefined)
IC50 (MDA-MB-231 [1]): 5.65 µM

Structure (SMILES): O=C(NC(Nc1nc(Cl)cc(Nc2ccc(C(F)(F)F)cc2)n1)C(Cl)(Cl)Cl)OCCCc1ccncc1 (centres undefined)
IC50 (MDA-MB-231 [1]): 7.27 µM

Structure (SMILES): Cc1ncc([N+](=O)[O-])n1CCOC(=O)NC(Nc1nc(Cl)cc(Nc2ccccc2)n1)C(Cl)(Cl)Cl (centres undefined)
IC50 at 48 h [2]: 22.5 µM | IC50 at 48 h [3]: 18.3 µM | IC50 at 48 h [4]: 15.1 µM | IC50 (HeLa): 19.6 µM | IC50 (SiHa): 24.4 µM | IC50 (MDA-MB-231 [1]): 14.1 µM | IC50 (MDA-MB-436): 13.7 µM | IC50 (MCF7): 9 µM

Structure (SMILES): Cc1ncc([N+](=O)[O-])n1CCOC(=O)NC(Nc1ncccn1)C(Cl)(Cl)Cl (centres undefined)
Kd [5]: 236 µM | Ratio IC50 [6]: 1.53 | IC50 at 48 h [2]: 161 µM | IC50 at 48 h [3]: 151 µM | IC50 at 48 h [4]: 252 µM | selectivity ratio [7]: 0.84 | Activity (MDA-MB-231 [8]): 38.8% | viability at 300 µM (MDA-MB-231 [9]): 59.7% | Activity (MDA-MB-231 [10]): 38.6% | Activity (MDA-MB-231 [11]): 0.95% | Activity (MDA-MB-231 [12]): 0.7% | Activity (MDA-MB-231 [13]): 53% | IC50 (HeLa): 198 µM | IC50 (SiHa): 203 µM | IC50 (MDA-MB-231 [1]): 192 µM | IC50 (MDA-MB-436): 176 µM | IC50 (MCF7): 292 µM

Structure (SMILES): O=C(NC(Nc1nc(Cl)cc(Nc2ccc(C(F)(F)F)cc2)n1)C(Cl)(Cl)Cl)OCCCc1ccccc1 (centres undefined)
IC50 (MDA-MB-231 [1]): 6.69 µM

Structure (SMILES): Cc1ccc(Nc2cc(Cl)nc(NC(NC(=O)OCCn3c([N+](=O)[O-])cnc3C)C(Cl)(Cl)Cl)n2)cc1 (centres undefined)
IC50 (MDA-MB-231 [1]): 7.62 µM

Structure (SMILES): Cc1ncc([N+](=O)[O-])n1CCOC(=O)NC(Nc1nc(Cl)cc(N(C)C)n1)C(Cl)(Cl)Cl (centres undefined)
IC50 (HeLa): 70.2 µM | IC50 (SiHa): 47.4 µM | IC50 (MDA-MB-231 [1]): 36.4 µM

Structure (SMILES): Cc1ncc([N+](=O)[O-])n1CCOC(=O)NC(Nc1nc(Nc2ccc(C(F)(F)F)cc2)cc(C(F)(F)F)n1)C(Cl)(Cl)Cl (centres undefined)
IC50 (MDA-MB-231 [1]): 5.23 µM

Structure (SMILES): Cc1ncc([N+](=O)[O-])n1CCOC(=O)NC(Nc1nc(Cl)cc(Nc2ccc(C(F)(F)F)cc2)n1)C(Cl)(Cl)Cl (centres undefined)
Ratio IC50 [6]: 1.86 | IC50 at 48 h [2]: 3.7 µM | IC50 at 48 h [3]: 10.1 µM | IC50 at 48 h [4]: 22.5 µM | selectivity ratio [7]: 0.93 | IC50 (MDA-MB-231 [1]): 3.98 µM | IC50 (MDA-MB-436): 4.6 µM | IC50 (MCF7): 7.42 µM

Structure (SMILES): Cc1ncc([N+](=O)[O-])n1CCOC(=O)NC(Nc1nc(Cl)cc(-c2ccccc2)n1)C(Cl)(Cl)Cl (centres undefined)
IC50 (HeLa): 33.2 µM | IC50 (SiHa): 41.4 µM | IC50 (MDA-MB-231 [1]): 18.5 µM

Structure (SMILES): Cc1ncc([N+](=O)[O-])n1CCOC(=O)NC(Nc1ncc(Br)c(Nc2ccc(C(F)(F)F)cc2)n1)C(Cl)(Cl)Cl (centres undefined)
IC50 (MDA-MB-231 [1]): 4.58 µM

Structure (SMILES): CNc1cc(Cl)nc(NC(NC(=O)OCCn2c([N+](=O)[O-])cnc2C)C(Cl)(Cl)Cl)n1 (centres undefined)
IC50 (HeLa): 72.3 µM | IC50 (SiHa): 56.6 µM | IC50 (MDA-MB-231 [1]): 56.7 µM

Structure (SMILES): O=C(NC(Nc1nc(Cl)cc(Nc2ccc(C(F)(F)F)cc2)n1)C(Cl)(Cl)Cl)OCCc1ccncc1 (centres undefined)
IC50 (MDA-MB-231 [1]): 7.52 µM

Structure (SMILES): COc1cc(N)nc(NC(NC(=O)OCCn2c([N+](=O)[O-])cnc2C)C(Cl)(Cl)Cl)n1 (centres undefined)
IC50 (HeLa): > 100 µM | IC50 (SiHa): 89.4 µM | IC50 (MDA-MB-231 [1]): > 100 µM

Structure (SMILES): O=C(NC(Nc1nc(Cl)cc(Nc2ccc(C(F)(F)F)cc2)n1)C(Cl)(Cl)Cl)OCCNC(=O)c1csc(Cl)n1 (centres undefined)
IC50 (MDA-MB-231 [1]): 7.27 µM

Structure (SMILES): Cc1ncc([N+](=O)[O-])n1CCOC(=O)NC(Nc1nc(Cl)cc(Nc2cccc(OC(F)(F)F)c2)n1)C(Cl)(Cl)Cl (centres undefined)
IC50 (MDA-MB-231 [1]): 6.76 µM

Structure (SMILES): Cc1ncc([N+](=O)[O-])n1CCOC(=O)NC(Nc1nc(N)cc(Cl)n1)C(Cl)(Cl)Cl (centres undefined)
IC50 (HeLa): 45 µM | IC50 (SiHa): 39 µM | IC50 (MDA-MB-231 [1]): > 100 µM

Structure (SMILES): Cc1ncc([N+](=O)[O-])n1CCOC(=O)NC(Nc1ncc(Cl)c(Nc2ccc(C(F)(F)F)cc2)n1)C(Cl)(Cl)Cl (centres undefined)
IC50 (MDA-MB-231 [1]): 4.19 µM

Structure (SMILES): O=C(NC(Nc1nc(Cl)cc(Nc2ccc(C(F)(F)F)cc2)n1)C(Cl)(Cl)Cl)OCCc1ccccc1 (centres undefined)
IC50 (MDA-MB-231 [1]): 6.61 µM

Structure (SMILES): O=C(NC(Nc1nc(Cl)cc(Nc2ccc(C(F)(F)F)cc2)n1)C(Cl)(Cl)Cl)OCCc1ccccn1 (centres undefined)
IC50 (MDA-MB-231 [1]): 5.34 µM

Structure (SMILES): Cn1ccnc1C(=O)NCCOC(=O)NC(Nc1nc(Cl)cc(Nc2ccc(C(F)(F)F)cc2)n1)C(Cl)(Cl)Cl (centres undefined)
IC50 (MDA-MB-231 [1]): 7.22 µM

Structure (SMILES): Cc1ncc(C(=O)NCCOC(=O)NC(Nc2nc(Cl)cc(Nc3ccc(C(F)(F)F)cc3)n2)C(Cl)(Cl)Cl)s1 (centres undefined)
IC50 (MDA-MB-231 [1]): 4.36 µM

Structure (SMILES): Cc1cc(N)nc(NC(NC(=O)OCCn2c([N+](=O)[O-])cnc2C)C(Cl)(Cl)Cl)n1 (centres undefined)
IC50 (HeLa): > 100 µM | IC50 (SiHa): > 100 µM | IC50 (MDA-MB-231 [1]): > 100 µM

Next, values leading:

IC50 (HeLa): 65.4 µM | IC50 (SiHa): > 100 µM | IC50 (MDA-MB-231 [1]): > 100 µM
Structure (SMILES): Cc1ncc([N+](=O)[O-])n1CCOC(=O)NC(Nc1nc(N)cc(F)n1)C(Cl)(Cl)Cl (centres undefined)

IC50 (MDA-MB-231 [1]): 8.13 µM
Structure (SMILES): Cc1ncc([N+](=O)[O-])n1CCOC(=O)NC(Nc1nc(Cl)cc(Nc2ccc(F)cc2)n1)C(Cl)(Cl)Cl (centres undefined)

IC50 (MDA-MB-231 [1]): 11 µM
Structure (SMILES): Cc1ncc([N+](=O)[O-])n1CCOC(=O)NC(Nc1nc(Cl)cc(Nc2ccc(C#N)cc2)n1)C(Cl)(Cl)Cl (centres undefined)

IC50 (HeLa): 38.9 µM | IC50 (SiHa): 35.7 µM | IC50 (MDA-MB-231 [1]): 16.2 µM
Structure (SMILES): CCN(CC)c1cc(Cl)nc(NC(NC(=O)OCCn2c([N+](=O)[O-])cnc2C)C(Cl)(Cl)Cl)n1 (centres undefined)

IC50 (MDA-MB-231 [1]): 7.79 µM
Structure (SMILES): Cc1cccc(Nc2cc(Cl)nc(NC(NC(=O)OCCn3c([N+](=O)[O-])cnc3C)C(Cl)(Cl)Cl)n2)c1 (centres undefined)

IC50 (MDA-MB-231 [1]): 16 µM
Structure (SMILES): Cc1ncc([N+](=O)[O-])n1CCOC(=O)NC(Nc1nc(Cl)cc(Nc2ccccc2F)n1)C(Cl)(Cl)Cl (centres undefined)

IC50 (MDA-MB-231 [1]): 8.67 µM
Structure (SMILES): Cc1ncc([N+](=O)[O-])n1CCOC(=O)NC(Nc1nc(Cl)cc(Nc2cccc(F)c2)n1)C(Cl)(Cl)Cl (centres undefined)

IC50 (MDA-MB-231 [1]): 6.01 µM
Structure (SMILES): Cc1ncc([N+](=O)[O-])n1CCOC(=O)NC(Nc1nc(Cl)cc(Nc2cccc(C(F)(F)F)c2)n1)C(Cl)(Cl)Cl (centres undefined)

IC50 (MDA-MB-231 [1]): 13.8 µM
Structure (SMILES): O=C(NC(Nc1nc(Cl)cc(Nc2ccc(C(F)(F)F)cc2)n1)C(Cl)(Cl)Cl)OCCCc1cccnc1 (centres undefined)

IC50 (MDA-MB-231 [1]): 7.63 µM
Structure (SMILES): O=C(NC(Nc1nc(Cl)cc(Nc2ccc(C(F)(F)F)cc2)n1)C(Cl)(Cl)Cl)OCc1ccccc1 (centres undefined)

IC50 (MDA-MB-231 [1]): 11.1 µM
Structure (SMILES): O=C(NC(Nc1nc(Cl)cc(Nc2ccc(C(F)(F)F)cc2)n1)C(Cl)(Cl)Cl)OCCCc1ccccn1 (centres undefined)

IC50 (MDA-MB-231 [1]): 16.2 µM
Structure (SMILES): Cc1ncc([N+](=O)[O-])n1CCOC(=O)NC(Nc1nc(Cl)cc(Nc2cccc(C#N)c2)n1)C(Cl)(Cl)Cl (centres undefined)

IC50 (MDA-MB-231 [1]): 13.8 µM
Structure (SMILES): O=C(NC(Nc1nc(Cl)cc(Nc2ccc(C(F)(F)F)cc2)n1)C(Cl)(Cl)Cl)OCCc1cccnc1 (centres undefined)

IC50 (MDA-MB-231 [1]): 7.21 µM
Structure (SMILES): O=C(NC(Nc1nc(Cl)cc(Nc2ccc(C(F)(F)F)cc2)n1)C(Cl)(Cl)Cl)OCCCCc1ccccc1 (centres undefined)

IC50 (MDA-MB-231 [1]): 3.89 µM
Structure (SMILES): O=C(NC(Nc1nc(Cl)cc(Nc2ccc(C(F)(F)F)cc2)n1)C(Cl)(Cl)Cl)OCCNC(=O)c1cnc(Cl)s1 (centres undefined)
